Series [1] is described as follows: Response to reactive species, biological thiols and amines (chemostability).
Protocol: (e) Response of AlDeSense to various reactive oxygen species, biological thiols, and amines at concentrations of 100 μM (GSH was tested at 1 mM). For all assays, AlDeSense was used at 1 μM final concentration.
All assays were performed in 50 mM triethanolamine buffer red-AlDeSense was used at 2 μM. Enzyme concentrations affording 1 nmol substrate/minute were used. Reactive species were tested at 100 μM, except glutathione which was at 1 mM.
A short description of series [2]: Photophysical properties (absorbance, emission, extinction coefficient, quantum yield). The series is classed as physicochemical. To be noted: for λabs: maximum absorbance.
The subject of series [3] is K562 cells. In words: Trypan blue cytotoxicity / viability assay. To be noted: K562 cells; 6, 12 and 24 hours. The class given is cell-based. The method, then: K562 cells were plated in a 96-well plate with 50,000 cells per well. Each well was filled to a final volume of 100 μL IMDM media with 0.25% DMSO. Wells were tested using red-AlDeSense or Ctrl-red-AlDeSense (1 μM and 5 μM each) or using a DMSO control. After 6-, 12-, and 24-hour incubation periods at 37° C. and 5% CO2, a 10 μL sample was removed from each condition and combined with 10 μL 0.4% w/v trypan blue in PBS. Samples were incubated for 3 minutes at room temperature before being loaded on a hemocytometer where live and dead cells were counted. Conditions were tested in triplicate for each time point. Samples were analyzed on an EVOS digital inverted microscope using transmitted white light for brightfield imaging and the Cy5 filter cube for trypan blue visualization.
K562 cells were plated in a 96-well plate at a density of 500,000 cells/mL in full IMDM media supplemented with either 1 μM or […] AlDeSense AM. Equivalent samples were supplemented with 1 μM or […] as a vehicle control. At 6, 12, and 24 hours, a 10 μL sample was removed from each of the samples and mixed 1:1 with a 0.4% wt/volume trypan blue solution in PBS. Samples were incubated for 1 minute at room temperature before being loaded onto a hemocytometer where live and dead cells were counted. Each sample was made in triplicate for each time point.

For series [4], the system named is K562 cells. Kind of series: Flow cytometry of K562 cells with red-AlDeSense. The series is classed as cell-based, human. To be noted: 1 μM dye. As to the method:
For all cell lines, 200,000 cells in a single-cell suspension were transferred into 1.5 mL Eppendorf tubes. Cells were pelleted by centrifugation at 400 g for 5 minutes at room temperature. After removing the supernatant by aspiration, cells were resuspended in 300 μL premixed PBS supplemented with verapamil, probenecid, and novobiocin. […] Samples were immediately stored on ice. Cells were stained with red-AlDeSense or Ctrl-red-AlDeSense (100 μL of 4 μM dye solution; dyes were normalized by fluorescence spectroscopy). Samples were analyzed on a BD LSR II Flow Cytometry Analyzer using a 488 nm laser and a 550 LP and 610/30 filter set. Samples were analyzed every 5 minutes for 15 minutes, with the samples being placed back on ice between data collection. Data were analyzed on FCS Express 6.04.

The target of the next series is T1, ALDH1A3 (Homo sapiens, UniProt P47895).
T1 construct: made in house
T1 sequence (P47895 1-512): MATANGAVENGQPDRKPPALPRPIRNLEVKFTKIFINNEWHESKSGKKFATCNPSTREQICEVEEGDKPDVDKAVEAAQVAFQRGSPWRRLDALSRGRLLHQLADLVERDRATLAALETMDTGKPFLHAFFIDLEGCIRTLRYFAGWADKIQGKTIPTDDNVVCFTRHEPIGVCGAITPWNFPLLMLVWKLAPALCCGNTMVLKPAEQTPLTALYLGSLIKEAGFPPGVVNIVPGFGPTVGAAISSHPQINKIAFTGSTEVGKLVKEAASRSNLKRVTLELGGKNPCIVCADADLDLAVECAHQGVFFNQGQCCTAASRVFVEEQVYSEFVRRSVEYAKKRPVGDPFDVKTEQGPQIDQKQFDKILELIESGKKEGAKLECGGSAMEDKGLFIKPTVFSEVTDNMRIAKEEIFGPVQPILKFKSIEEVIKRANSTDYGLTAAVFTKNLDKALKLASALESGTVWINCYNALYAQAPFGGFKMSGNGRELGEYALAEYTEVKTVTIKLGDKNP
Kind of series: ALDH isoform selectivity of red probes: ALDH1A3. The series is classed as biochemical. As to the method:
Each ALDH isoform was added to a 50 mM triethanolamine solution (pH 7.4) containing 2.0 mM NAD^+ and 100 μM substrate at room temperature. Benzaldehyde was the substrate for ALDH3A1. Propanal was the substrate for all other isoforms. ALDH isoform activity was determined by monitoring the rate of NADH production through the increase in absorbance at 340 nm (ε=6220 M^−1cm^−1). For these assays, 1 unit is defined as the amount of enzyme that catalyzes the conversion of […] per minute. For every combination of dye and enzyme, 2 μM dye was preincubated with 2.0 mM NAD^+ in 50 mM triethanolamine solution (pH 7.4). The reaction was initiated by addition of 1 unit of ALDH. Dyes were excited at 590 nm, and fluorescence was measured continuously at 610 nm.

Series [5] concerns e-CSC and non-CSC melanoma lung metastases. Kind of series: Ex vivo lung metastases imaging. To be noted: lungs perfused ex vivo, day 7 and 11. The series is classed as in vivo, mice. As to the method: Six to eight-week-old female C57BL/6J mice were purchased from Jackson Laboratory. Experimental metastases were established by injecting 2×10^5 melanoma cells via lateral tail vein injection. Mice were euthanized at either 7- or 11-days post injection. Immediately after euthanization, their lungs were excised and perfused with about 1 mL of either 15 μM AlDeSense AM or 15 μM Ctrl-AlDeSense AM in PBS. Outer portions of the lungs were rinsed in 15 mL of PBS to remove blood or excess dyes. After 2 hours incubation at room temperature (25° C.), the lungs were imaged on the IVIS spectrum imaging system (Perkin Elmer). Data was processed using Living Image software (Version 4.1).

The next series has as its system B16F0 melanoma cells. Kind of series: B16F0 melanoma confocal imaging (e-CSC vs non-CSC). The class given is cell-based, murine. The method, then: B16F0 Melanoma Confocal Imaging. B16F0 murine melanoma cells were cultured for 5 days on polyacrylamide hydrogels with or without spiral patterns as described previously (Drug Discov Today 2014, 19, 1953). The coverslips on which the hydrogels and cells were mounted were transferred to a glass-bottomed dish for confocal imaging, leaving the cells intact. Solutions of either 2 μM AlDeSense AM or 2 μM Ctrl-AlDeSense AM in PBS were added to the two types of cells. The cells were incubated at room temperature for 1 h and then immediately imaged. Confocal imaging was performed on a Zeiss LSM700 Confocal Microscope, utilizing the 488 nm laser line to excite AlDeSense AM and the 20×/0.8 objective. Three different coverslips of cells were imaged for each set of conditions and at least 6 μmages were taken for each coverslip. Using ImageJ, ROIs were drawn around areas covered with cells and mean fluorescence values were measured for each image.

SMILES strings stand for the structures. “And” between values parts separate entries of the source, which are not always exact repeats. Equal values may be shown once.

For the compound `Cc1cc(C=O)c(F)c(F)c1C1=C2C=CC(=O)C=C2[Si](C)(C)c2cc(O)ccc21`, the “chemostability across reactive oxygen, nitrogen and sulfur species” value in series [1] (species 100 μM, glutathione 1 mM, 2 μM red-AlDeSense) is “only ALDH1A1 elicited turnover”. In series [2], the “bathochromic shift in absorbance and emission compared to AlDeSense” value is recorded as 100 nm; the “maximum emission (λem)” value came to 614 nm; the λabs was found to be 594 nm. Moreover, the “Quantum Yield” value in series [2] (Probes 1-8) came to 0.21. In addition, in the series with K562 cells [3], the “toxicity in cell viability assay” value is given as “nontoxic”. The “K562 cells with high ALDH1A1 activity” value with K562 cells [4] was 39.0±8.3%. Further, the “selectivity ALDH1A1 versus ALDH1A3” value on ALDH1A3 was “selective for ALDH1A1 over ALDH1A3”. Besides, the “Enzyme Activity 1A3” value at ALDH1A3 (Table 2) is “Low”.

For `Cc1cc(C=O)ccc1-c1c2cc(F)c(=O)cc-2oc2cc(O)c(F)cc12` [AlDeSense], the “response to thiols and amines” value in series [1] (100 μM (GSH 1 mM), 1 μM AlDeSense) was “did not detect formation of fluorescent hemithioacetal and Schiff base products”. In addition, the “response to panel of reactive oxygen species” value in series [1] (100 μM species, 1 μM AlDeSense) is reported as “did not observe any oxidized fluorescent products”. In addition, in series [2], the ε was determined as 61000 M⁻¹ cm⁻¹ and the λabs is on record as 496 nm. Besides, the λcm in series [2] (Table 1) is on record as 516 nm. The ΔE00 in series [2] (at 503 nm, intersecting wavelength of normalized absorbance and emission) is 2.46 eV. In addition, in series [2] (prior to activation), the ΦF is 0.04 and 0.041. Besides, in the series with K562 cells [3], the “toxicity in cell viability assay” value is listed as “non-toxic”. The “fluorescence of e-CSC lungs versus non-CSC lungs” value in series [5] was “higher”. Further, the “brightness of e-CSCs versus e-CSCs treated with Ctrl-AlDeSense” value in the series on B16F0 melanoma cells is reported as 9.0 fold. For the same compound, the “brightness of e-CSCs versus non-CSCs” value in the series with B16F0 melanoma cells (both stained with AlDeSense) is 11.3 fold.

The values above are taken from patent US11407725B2 (The Board of Trustees of the University of Illinois, priority 2018, dated 2022).
